# Test results: PubChem BioAssay AID463203 (Broad Institute, 2010)
# Activity calls are given as the source filed them.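 The calls were made as follows: active = more than half of replicate measurements showing over 20% loss of kinase signal relative to plate controls; inconclusive = some but at most half of replicates over 20% loss; inactive = no replicate over 20% signal loss.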
# Target: Glycogen synthase kinase-3 alpha (Homo sapiens) (UniProt P49840)
# Test: concentration-response blocking of human GSK3A – biochemical, luminescence, cell-free homogeneous, retest, dose response (AID 463203)
# Details: GSK-3 alpha enzyme, ADP-Glo luminescence, 60 min
# Glycogen synthase kinase-3 alpha (Homo sapiens), sequence (P49840 whole entry, looked up): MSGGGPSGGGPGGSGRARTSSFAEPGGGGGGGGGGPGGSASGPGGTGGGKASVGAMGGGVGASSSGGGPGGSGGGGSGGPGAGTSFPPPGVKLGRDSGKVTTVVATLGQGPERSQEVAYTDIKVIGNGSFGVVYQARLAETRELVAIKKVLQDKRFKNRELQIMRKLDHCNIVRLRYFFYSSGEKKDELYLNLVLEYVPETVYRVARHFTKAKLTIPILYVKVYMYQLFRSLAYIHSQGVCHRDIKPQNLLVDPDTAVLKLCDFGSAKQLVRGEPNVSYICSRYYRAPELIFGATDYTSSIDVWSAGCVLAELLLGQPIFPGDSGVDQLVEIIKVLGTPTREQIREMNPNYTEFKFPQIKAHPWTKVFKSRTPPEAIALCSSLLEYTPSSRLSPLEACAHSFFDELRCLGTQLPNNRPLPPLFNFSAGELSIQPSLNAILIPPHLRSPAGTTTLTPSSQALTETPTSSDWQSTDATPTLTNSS
row,Compound,AC50
1,Cn1cnnc1Sc1ccc(CN2CCN(C3CCCC3)C(CCO)C2)o1 (stereo unspecified),> 30 µM (inactive)
2,O=C(CSc1nnc(SCC(=O)c2ccco2)s1)c1ccco1,> 30 µM (inactive)
3,CN(C)c1ccc(/C=N/NC(=O)c2nnn(-c3nonc3N)c2CN(C)c2ccccc2)cc1,> 30 µM (inactive)
4,Oc1ccc2oc3c(c2c1C=NCc1ccncc1)CCCC3,> 30 µM (inactive)
5,O=C(CSc1ncccc1-c1nc2ccccc2[nH]1)NCc1ccco1,> 30 µM (inactive)
6,C=CCNC(=S)N1CCN(c2cccc(C(F)(F)F)c2)CC1,> 30 µM (inactive)
7,CCOC(=O)c1cc(CC)sc1NC(=O)CN1CCN(C(=O)c2ccco2)CC1,> 30 µM (inactive)
8,O=C1Nc2ccccc2Sc2ccccc21,> 30 µM (inactive)
9,CCOC(=O)c1cnc2c(C)cc(Cl)cc2c1N1CCN(C)CC1,> 30 µM (inactive)
10,CC(=O)Nc1ccc(Oc2ccc3c(c2)C(=O)NC3=O)cc1,25 µM
11,COc1ccc(CC(=O)N2CCOCC2)cc1,> 30 µM (inactive)
12,CCOc1ccccc1-n1c(O)c(C=NCCCn2ccnc2)c(=O)[nH]c1=O,20.5 µM
13,Nc1ccc2c(c1)C(=O)c1ccccc1C2=O,> 30 µM (inactive)
14,Cc1ccc2c(c1)Oc1ccc(NC(=O)CCCl)cc1C(=O)N2,> 30 µM (inactive)
15,CCOc1ccc(C2C3=C(CCCC3=O)Nc3ccc4ncccc4c32)cc1 (stereo unspecified),> 30 µM (inactive)
16,COc1ccc(C=O)cc1OS(=O)(=O)c1ccccc1[N+](=O)[O-],> 30 µM (inactive)
17,O=C(NCCCn1ccnc1)C(=O)NC1CCCCC1,> 30 µM (inactive)
18,CC(C)N=C(NC#N)SCc1ccc(F)cc1,> 30 µM (inactive)
19,COc1ccc(C(=O)Nc2nc(C)c(C)s2)cc1OC,> 30 µM (inactive)
20,Cc1ccc2nc3c(cc2c1)c(NS(=O)(=O)c1ccccc1)nn3CC(C)C,> 30 µM (inactive)
21,CCc1ccc(N2CSC3=C(C#N)C(c4cccs4)CC(=O)N3C2)cc1 (stereo unspecified),28.8 µM

row,Compound,AC50
1,N#Cc1c(Nc2ccccc2)c(/C=N/N=C/c2ccccc2)c[nH]c1=O,> 30 µM (inactive)
2,CCOC(=O)C1CCN(c2c(C(=O)c3ccccc3)cnc3ccc(CC)cc23)CC1,> 30 µM (inactive)
3,CN(C)C=NC(=O)/C(C#N)=C/c1ccccc1,> 30 µM (inactive)
4,CCS(=O)(=O)N1CCN(c2ccnc3cc(Cl)ccc23)CC1,> 30 µM (inactive)
5,CCCCCCCCCCOC(=O)Cn1c(COc2ccc(Cl)cc2)[n+](C)c2ccccc21,> 30 µM (inactive)
6,O=[N+]([O-])c1ccc(-c2nnc(-c3ccccc3)c(NCCCO)n2)cc1,> 30 µM (inactive)
7,CC(C)Nc1nc(NC(C)C)nc(C(=O)OCCO)n1,> 30 µM (inactive)
8,COc1ccc(C(=O)c2sc3nc(-c4ccc(OC)cc4)ccc3c2N)cc1,> 30 µM (inactive)
9,O=C(N/N=C/c1cccnc1)c1cccc(S(=O)(=O)N2CCCC2)c1,> 30 µM (inactive)
10,Cc1cc(/C=N/O)c(C)n1-c1ccc(Br)cc1,> 30 µM (inactive)
11,COc1ccc(C2=Nn3c(nnc3-c3ccccc3)SC2)cc1OC,> 30 µM (inactive)
12,Fc1ccccc1-c1nnc2ccc3ccccc3n12,> 30 µM (inactive)
13,COCCOC(=O)c1[nH]c2c(c1C)C(=O)CC(c1cc(OC)c(OC)c(OC)c1)C2 (stereo unspecified),> 30 µM (inactive)
14,O=C(c1ccc(Cl)cc1)c1cnc(Nc2ccccc2)s1,> 30 µM (inactive)
15,Cc1ccc(C(=O)c2cnc3cc4c(cc3c2S(=O)(=O)c2ccccc2)OCCO4)cc1,> 30 µM (inactive)
16,O=C(O)COc1ccccc1/C=N/NC(=O)CSc1nnc(SCc2ccccc2)s1,> 30 µM (inactive)
17,Cc1nc2c(ccc3c2ccc2nc(C)sc23)s1,> 30 µM (inactive)
18,O=C(NC1CCCC1)c1ccc(Cn2c(=O)[nH]c3ccsc3c2=O)cc1,> 30 µM (inactive)
19,O=C(CNC(=S)N(Cc1ccccc1)Cc1cccnc1)NC1CCCCC1,> 30 µM (inactive)
20,CCC(=O)c1ccc(OCC(O)CN2CCCCC2)cc1 (stereo unspecified),> 30 µM (inactive)
